Article PMC6778101 (Nature Communications, 2019)
Where two headings read alike, the source gives them in different places. Ends that are not written are not given here.

Columns and labels:
Format in all cases: cell-based, Escherichia coli
E. coli K-12 BW25113 [1] = assay: microbe, parasite or virus in culture
Source text: Unless otherwise indicated, Minimal Salt (MS) medium was used in all experiments, including the laboratory evolution experiments. In line with previous, methodologically relevant laboratory evolution studies, the physical conditions (including the medium) were the same during the course of laboratory evolution and all forthcoming assays on the resulting resistant lines (e.g. MIC measurements). We previously optimized this medium for studying AMPs (1 g L^−1 (NH4)2SO4, 3 g L^−1 KH2PO4 and 7 g L^−1 K2HPO4 supplemented with 0.1 mM MgSO4, 0.54 µg mL^−1 FeCl3, 1 µg mL^−1 thiamine hydrochloride, 0.2% Casamino acids and 0.2% glucose)[19]. This medium is highly controlled and provides a reproducible environment for experimental evolution experiments. All components were obtained from Sigma-Aldrich.
MICs were determined using a standard serial broth dilution technique. Briefly, 11-step serial dilutions were prepared in 96-well microtiter plates with three replicates per strain and antimicrobial compound. Each experiment was repeated at least twice. 5 × 10^5 cells/mL were inoculated into each well, and the plates were incubated at 30 °C in case of E. coli K-12 BW25113, and its antibiotic and AMP-adapted lines, or 37 °C in case of the other bacterial species. […] Cell growth was monitored by measuring the optical density (OD600 value, Biotek Synergy 2 microplate reader was used for this purpose). […] Relative MIC was calculated as follows: MICrelative = MICevolved/MICcontrol.

[2] = tested on: E. coli K-12 BW25113 carrying ASKA plasmids; assay: microbe, parasite or virus in culture; conditions: MS medium + 10 µg mL−1 CHL + 500 µM IPTG, 5 × 10^5 cells, 16–18 h, 37 °C; for MIC: Escherichia coli
Source text: Bacterial gene amplification generates extensive genetic variation that can provide drug resistance[37],[38]. As gene amplification events tend to be genetically unstable and reduce bacterial fitness, they are transient in nature. Using the ASKA library, which comprises each E. coli ORF cloned into an expression vector[40], we have conducted a global survey to evaluate whether artificially amplified genes provide resistance to any of the 14 AMPs and 11 antibiotics tested. As chloramphenicol (CHL) was used as a selection marker for the ASKA plasmid, this antibiotic was not tested in this screen. E. coli K-12 BW25113 cells were transformed with the pooled plasmids of the ASKA library, and the genetically mixed populations were exposed to increasing levels of AMP or antibiotic stresses, respectively. In all cases, the employed AMP or antibiotic dosages were above the MIC of the wild type. For each drug, we identified the MIC provided in the pooled ASKA plasmid library, and compared it to the MIC of the wild-type strain carrying the empty ASKA plasmid.
The ASKA library (a complete set of E. coli K-12 ORF archive) includes every E. coli ORF cloned into an expression vector (pCA24N)[65]. Prior to screening, the ASKA plasmid collection was pooled and transformed into E. coli K-12 BW25113 strain[66]. The plasmid pool was created by pooling an equal aliquot of cells, each carrying different members of the ASKA library, followed by plasmid miniprep. Next, the plasmid pool was electroporated into E. coli K-12 BW25113 competent cells. […] For the MICs measurements 500 000 cells were inoculated in each well which represents ~100 times coverage of each library member. […] Prior to the measurements the cell population containing the pooled overexpression library or the control strain containing the empty vector were grown in three replicates in LB medium supplemented with 20 µg/mL CHL. As the culture reached high density (i.e., OD600 > 0.8), expression of the plasmid was induced by 50 µM IPTG for 1 h. Following induction, 5 × 10^5 bacterial cells were inoculated in three replicates into each well of the 96-well plate and incubated for 16–18 h at 37 °C. Following incubation the MIC values were determined by measuring optical densities in a plate reader (Biotek Synergy).

E. coli K-12 BW25113 [3] = assay: Laboratory evolution of resistance, MIC fold change of adapted lines; conditions: ~120 generations under increasing drug concentration
Source text: Our first goal was to study resistance evolution against a set of AMPs and antibiotics. We have followed established protocols with minor modifications to evolve bacterial populations under controlled laboratory conditions[19],[20]. The applied protocol aims to maximize the level of drug resistance in the evolving populations achieved during a fixed time period. We have initiated a laboratory evolution experiment, starting with a single clone of Escherichia coli K-12 BW25113 (abbreviated as E. coli K-12 BW25113). Parallel evolving populations were exposed to increasing concentrations of one of 14 AMPs (Supplementary Table 1). Peptides were chosen based on the following criteria: diverse sources (synthetic/natural), different putative mechanisms of action, structural diversity, and clinical relevance. Another set of populations were exposed to one of 12 clinically relevant antibiotics (Supplementary Table 2), using the same protocol. Accordingly, we have propagated 10 independent populations in the presence of each AMP or antibiotic for ∼120 generations. We isolated a single, representative clone from each population, resulting in 140 AMP-adapted lines and 120 antibiotic-adapted lines. Throughout the paper, we compare the level of resistance in the evolved lines to the corresponding wild-type strain by measuring changes in the drugs’ minimum inhibitory concentrations (MIC).
The evolutionary protocol was designed to avoid population extinction and to ensure that populations with the highest level of resistance were propagated further. Starting with a subinhibitory drug concentration (Supplementary Data 8), resulting in ~50% growth inhibition, 10 parallel populations per drug were allowed to grow in Minimal Salts medium for 72 h and 300 r.p.m. E. coli K-12 BW25113 and E. coli mutD5 populations were incubated at 30 °C, while E. coli ATCC 25922, S. enterica LT2, K. pneumonia ATCC 10031, and A. baumannii ATCC 17978 were incubated at 37 °C. […] Prior to each transfer, cell growth was monitored by measuring the optical density at 600 nm (OD600 value, Biotek Synergy 2 microplate reader). Only populations with the highest drug concentration (and reaching OD600 > 0.2) were selected for further evolution. A chess-board layout was used on the plate to monitor potential cross-contamination events. […] E. coli mutD5 was adapted to TPII, also in 10 parallel evolving populations.
MICs were determined using a standard serial broth dilution technique. Briefly, 11-step serial dilutions were prepared in 96-well microtiter plates with three replicates per strain and antimicrobial compound. Each experiment was repeated at least twice. 5 × 10^5 cells/mL were inoculated into each well, and the plates were incubated at 30 °C in case of E. coli K-12 BW25113, and its antibiotic and AMP-adapted lines, or 37 °C in case of the other bacterial species. Plates were shaken at 300 r.p.m. during incubation for 24 and 18 h, respectively. Cell growth was monitored by measuring the optical density (OD600 value, Biotek Synergy 2 microplate reader was used for this purpose). […] Relative MIC was calculated as follows: MICrelative = MICevolved/MICcontrol.

[4] = Escherichia coli, BW25113, 24 h, read-out: MIC
[5] = BW25113, Replicate 1, read-out: MIC value of E. coli K-12 BW25113 carrying the empty plasmid of the ASKA library
[6] = BW25113, Replicate 1, read-out: MIC value of E. coli K-12 BW25113 carrying the pooled plasmids of the ASKA library
[7] = BW25113, Replicate 2, read-out: MIC value of E. coli K-12 BW25113 carrying the empty plasmid of the ASKA library
[8] = BW25113, Replicate 2, read-out: MIC value of E. coli K-12 BW25113 carrying the pooled plasmids of the ASKA library
[9] = BW25113, Replicate 3, read-out: MIC value of E. coli K-12 BW25113 carrying the empty plasmid of the ASKA library
[10] = BW25113, Replicate 3, read-out: MIC value of E. coli K-12 BW25113 carrying the pooled plasmids of the ASKA library
[11] = starting wild-type strain of the evolution experiment, broth dilution, MS medium, 5 × 10^5 cells/mL, 30 °C, 24 h, MIC = OD600 < 0.05

Compound | MIC (E. coli K-12 BW25113 [1]; [4]) | MIC [2, 5] | MIC [2, 6] | MIC [2, 7] | MIC [2, 8] | MIC [2, 9] | MIC [2, 10] | MIC (E. coli K-12 BW25113 [1]; [11]) | resistance in evolved lines after laboratory evolution (in words) (E. coli K-12 BW25113 [3]) | MIC value of E. coli K-12 BW25113 carrying the empty plasmid of the ASKA library ([2]; Replicate 1) | MIC value of E. coli K-12 BW25113 carrying the pooled plasmids of the ASKA library ([2]; Replicate 1) | MIC value of E. coli K-12 BW25113 carrying the empty plasmid of the ASKA library ([2]; Replicate 2) | MIC value of E. coli K-12 BW25113 carrying the pooled plasmids of the ASKA library ([2]; Replicate 2) | MIC value of E. coli K-12 BW25113 carrying the empty plasmid of the ASKA library ([2]; Replicate 3) | MIC value of E. coli K-12 BW25113 carrying the pooled plasmids of the ASKA library ([2]; Replicate 3)
CN(C)[C@@H]1C(O)=C(C(N)=O)C(=O)[C@@]2(O)C(O)=C3C(=O)c4c(O)cccc4[C@@](C)(O)[C@H]3C[C@@H]12 [TET, Tetracycline] | 1.2 µg/mL | 0.62 µg/mL | 1.29 µg/mL | 0.62 µg/mL | 1.07 µg/mL | 0.62 µg/mL | 1.07 µg/mL | – | – | – | – | – | – | – | –
TSSPPAAVVVRRRRRRRRRRRRRRRRRRR [PROA, protamine, cationic AMP purchased from Sigma-Aldrich] | – | – | – | – | – | – | – | 310 µg/mL | isolated resistant mutants | 126.51 µg/mL | 126.51 µg/mL | 126.51 µg/mL | 36.15 µg/mL | 442.78 µg/mL | 442.78 µg/mL
CC[C@H]1OC(=O)[C@H](C)[C@@H](O[C@H]2C[C@@](C)(OC)[C@@H](O)[C@H](C)O2)[C@H](C)[C@@H](O[C@@H]2O[C@H](C)C[C@H](N(C)C)[C@H]2O)[C@](C)(O)C[C@@H](C)C(=O)[C@H](C)[C@@H](O)[C@]1(C)O [ERY, Erythromycin] | – | 11 µg/mL | 18.6 µg/mL | 14.3 µg/mL | 24.1 µg/mL | 14.3 µg/mL | 24.1 µg/mL | – | – | – | – | – | – | – | –
GLRKRLRKFRNKIKEKLKKIGQKIQGFVPKLAPRTDY [CAP18, rabbit CAP18] | – | – | – | – | – | – | – | 120 µg/mL | – | 24.11 µg/mL | 24.11 µg/mL | 20.09 µg/mL | 24.11 µg/mL | 24.11 µg/mL | 24.11 µg/mL
C[C@H]1c2cccc(O)c2C(=O)C2=C(O)[C@]3(O)C(=O)C(C(N)=O)=C(O)[C@@H](N(C)C)[C@@H]3[C@@H](O)[C@@H]21 [DOX, Doxycycline] | 1.5 µg/mL | 0.56 µg/mL | 1.59 µg/mL | 0.43 µg/mL | 1.59 µg/mL | 0.56 µg/mL | 1.59 µg/mL | – | – | – | – | – | – | – | –
